# In patent publication US20220193242A1, “IMMUNOPHILIN-DEPENDENT INHIBITORS AND USES THEREOF” (The Regents of the University of California, priority 2019, published 2022):
# Legend:
# KRAS and CypA = KRAS and CypA (Homo sapiens, UniProt P01116+P62937, G12C); assay: Melting curve of the KRAS.CypA complex; format: binding
# [1] = test system: TCR signaling (phospho-tyrosine) in Jurkat cells; assay: CD3 crosslinking (OKT3) triggered T cell activation in Jurkat cells, Western blot; format: cell-based
# Experimental: (§1) FIGS. 3A-3D. […] The phosphotyrosine levels were monitored by Western blot at various time points over 24 h.
# FIG. 25. […] Jurkat cells (1×10^6/mL) were treated with the indicated drugs for 1 h, then stimulated with anti-CD3 mAb OKT3 (5 μg/mL) for 5 min. before lysis and analysis.
# Src and HA-FKBP12 = molecular target: T1, Src and HA-FKBP12 (Homo sapiens, UniProt P12931+P62942); assay: Immunoprecipitation of HA-FKBP12 from Jurkat cell lysate; format: binding; settings: Jurkat cell lysate 1 mg/mL, 1 μM compound
# T1 construct: endogenous in cells; host or cells: Jurkat cell lysate (Src); HA-FKBP12 added as purified protein
# Experimental: FIGS. 2A-2C. […] Fractions of 0.5 mL were collected and analyzed by SDS-PAGE.
# FIG. 23. […] Pulldown was performed with Jurkat cell lysate (1 mg/mL, 200 μL), supplemented with 2 μg HA-FKBP12. Pulldown/wash buffer: 50 mM Tris 7.4, 120 mM NaCl, 1% NP-40, 1 mM EDTA, phosphatase/protease inhibitors.
# FKBP12 [2] = molecular target: T2, FKBP12 (Homo sapiens, UniProt P62942); assay: FKBP12 dependence of activity (FIG. 19)
# [3] = test system: phosphotyrosine levels in Jurkat cells; assay: Drug washout, phosphotyrosine levels over 24 h in Jurkat cells; format: cell-based; settings: 100 nM for 1 h
# Experimental: as §1
# FIG. 26. […] Jurkat cells (1×10^6/mL) were treated with 100 nM of the indicated compounds for 1 h, then were washed 3 times with PBS and resuspended in culture media. Samples were taken at the indicated time points and lysed immediately.
# K562 = settings: K562, 72 h treatment
# Experimental: FIG. 27. […] K562 (seeding density 5×10^4/mL) cells, 72 h treatment.
# LRRK2 = assay: Inhibition of LRRK2 autophosphorylation; format: cell-based
# Experimental: (§2) FIGS. 4A-4C. A general approach to construct FKBP-dependent, programmable kinase inhibitors. (FIG. 4A) Structures of lapatinib and FK-lapatinib, their effects on HER2 signaling and the growth inhibition of SK-BR-3 cells by these compounds. (FIGS. 4B-4C) Structures of GNE7915 and FK-GNE7915 and their inhibition of LRRK2 autophosphorylation.
# FIG. 30. […] 3T3 or RAW264.7 cells (MJFF cell line), 2 h treatment.
# (§3) We extended our design strategy and prepared two other bispecific ligands based on the structures of an FDA-approved HER2/EGFR inhibitor (lapatinib) and an LRRK2 inhibitor in clinical development (GNE7915). […] With the three case studies presented above, we cautiously anticipate that the same workflow could be applied to convert other kinase inhibitors into FKBP-dependent formats with similar if not better cellular activities.
# HRAS, CypA, Sos = HRAS, CypA, Sos (Homo sapiens, UniProt P01112+P62937, M72C); assay: HRAS.CypA ternary complex and Sos-mediated nucleotide exchange; format: biochemical
# Experimental: FIG. 44. […] Assay conditions: 1 μM Ras.GDP, 1 μM Mant-GDP, 20 mM EPES 7.5, 150 mM NaCl, 10 mM EDTA or 1 μM Sos. 95A is synonymous to 06-031.
# Ras.Raf binding = Ras.Raf binding pulldown; settings: HRAS.CypA ternary complex
# Experimental: FIG. 45. […] Pulldown conditions: 100 nM KRAS, 50 μg/mL BSA, 20 mM HEPES 7.5, 150 mM NaCl, 5 mM MgCl2, 1 mM […], 1% NP-40. GppNHp loaded proteins were prepared by EDTA-mediated nucleotide exchange.
# FKBP12 [4] = molecular target: T2, FKBP12; assay: Fluorescence polarization assay of binding to FKBP12
# [5] = test system: 139 kinases captured by the probe XO44; assay: In-cell kinase occupancy profiling with chemoproteomic probe XO44 in Jurkat cells; format: cell-based; settings: 100 nM, among 139 kinases captured by XO44, Jurkat cells
# HER2 = HER2 signaling in SK-BR-3 cells; format: cell-based; settings: 1 μM
# Description: as §2, §3
# SK-BR-3 cells = assay: Growth inhibition of SK-BR-3 cells; format: cell-based
# Description: as §2, §3
# T1 sequence (P12931 2-536 limits assumed): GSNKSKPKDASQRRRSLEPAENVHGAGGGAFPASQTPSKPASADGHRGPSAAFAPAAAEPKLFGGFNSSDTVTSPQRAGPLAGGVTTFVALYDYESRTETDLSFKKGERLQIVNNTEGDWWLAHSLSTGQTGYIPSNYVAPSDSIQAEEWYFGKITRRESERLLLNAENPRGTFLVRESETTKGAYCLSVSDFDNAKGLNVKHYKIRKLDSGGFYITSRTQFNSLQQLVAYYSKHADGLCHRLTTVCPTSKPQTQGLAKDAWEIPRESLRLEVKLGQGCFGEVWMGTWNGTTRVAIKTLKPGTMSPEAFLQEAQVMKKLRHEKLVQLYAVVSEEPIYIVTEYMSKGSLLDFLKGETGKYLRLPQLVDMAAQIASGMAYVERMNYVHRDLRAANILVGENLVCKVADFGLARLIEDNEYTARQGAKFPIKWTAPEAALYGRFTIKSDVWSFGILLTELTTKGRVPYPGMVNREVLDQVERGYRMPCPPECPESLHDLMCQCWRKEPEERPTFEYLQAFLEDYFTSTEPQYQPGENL
# T1 sequence (P62942 whole entry): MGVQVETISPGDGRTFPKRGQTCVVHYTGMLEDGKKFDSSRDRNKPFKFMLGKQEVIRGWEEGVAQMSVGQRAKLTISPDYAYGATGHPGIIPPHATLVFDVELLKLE
# T2 sequence (P62942 whole entry): as above
smiles,measurement,setting,value
C=CC(=O)N1CCN(c2nc(NCCC(=O)NCCNC(=O)CCC[C@@H](C)[C@@H](O)[C@H]3C(=O)N[C@@H](CC)C(=O)N(C)CC(=O)N(C)[C@@H](CC(C)C)C(=O)N[C@@H](C(C)C)C(=O)N(C)[C@@H](CC(C)C)C(=O)N[C@@H](C)C(=O)N[C@H](C)C(=O)N(C)[C@@H](CC(C)C)C(=O)N(C)[C@@H](CC(C)C)C(=O)N(C)[C@@H](C(C)C)C(=O)N3C)nc3c(F)c(-c4c(O)cccc4F)c(Cl)cc23)CC1 [Compound 07-014],melting curve of the complex,KRAS and CypA,2-stage melting curve
CO[C@H]1C[C@@H](C)C/C(C)=C/[C@@H](CCCC(=O)N2CCN(c3cc(Nc4ncc(C(=O)Nc5c(C)cccc5Cl)s4)nc(C)n3)CC2)C(=O)C[C@H](O)[C@@H](C)[C@@H](/C(C)=C/[C@@H]2CC[C@@H](O)[C@H](OC)C2)OC(=O)[C@@H]2CCCCN2C(=O)C(=O)[C@]2(O)O[C@H]1[C@@H](OC)C[C@H]2C [Compound 05-022],inhibition of phosphotyrosine signal,[1],potently inhibits
same,co-immunoprecipitation of Src with HA-FKBP12,Src and HA-FKBP12,form a stable ternary complex
same,dependence of activity on FKBP12,FKBP12 [2],dependent on FKBP12
same,durability of effect after washout,[3]; washed 3 times with PBS,durable after washout
same,growth inhibition,K562,FKBP-dependent growth inhibition
CCNc1nc(Nc2cc(F)c(C(=O)N3CCN(C(=O)CCC[C@@H]4/C=C(\C)C[C@H](C)C[C@H](OC)[C@H]5O[C@@](O)(C(=O)C(=O)N6CCCC[C@H]6C(=O)O[C@H](/C(C)=C/[C@@H]6CC[C@@H](O)[C@H](OC)C6)[C@H](C)[C@@H](O)CC4=O)[C@H](C)C[C@@H]5OC)CC3)cc2OC)ncc1C(F)(F)F [Compound 08-074],cellular activity compared to parent compound,"LRRK2; 3T3 or RAW264.7 cells, 2 h treatment",more potent cellular activity than its parent compound GNE-7915
"C=CC[C@@H]1/C=C(\C)C[C@H](C)C[C@H](OC)[C@H]2O[C@@](O)(C(=O)C(=O)N3CCCC[C@H]3C(=O)O[C@H](/C(C)=C/[C@@H]3CC[C@@H](O)[C@H](OC)C3)[C@H](C)[C@@H](O)CC1=O)[C@H](C)C[C@@H]2OC [FK506, tacrolimus, reference compound]",co-immunoprecipitation of Src with HA-FKBP12,Src and HA-FKBP12,not
C=CC(=O)Nc1cc(Cl)cc(NC(=O)c2cnn(-c3ccc(OCC(=O)N4CCN(C(=O)CCC[C@@H](C)[C@@H](O)[C@H]5C(=O)N[C@@H](CC)C(=O)N(C)CC(=O)N(C)[C@@H](CC(C)C)C(=O)N[C@@H](C(C)C)C(=O)N(C)[C@@H](CC(C)C)C(=O)N[C@@H](C)C(=O)N[C@H](C)C(=O)N(C)[C@@H](CC(C)C)C(=O)N(C)[C@@H](CC(C)C)C(=O)N(C)[C@@H](C(C)C)C(=O)N5C)CC4)cc3)c2C(F)(F)F)c1 [Compound 08-058],Sos-mediated nucleotide exchange,"HRAS, CypA, Sos; 1 μM Ras.GDP, 1 μM Mant-GDP, 1 μM Sos",inhibits Sos-mediated nucleotide exchange
same,ternary complex formation,"HRAS, CypA, Sos; HRAS, CypA",forms a ternary complex
same,Ras.Raf binding,Ras.Raf binding,does not seem to impair Ras.Raf binding
CO[C@H]1C[C@@H](C)C/C(C)=C/[C@@H](CCCC(=O)N2CCN(c3cc(Nc4ncc(C(=O)Nc5c(C)cccc5Cl)s4)nc(C)n3)CC2)C(=O)C[C@H](O)[C@@H](C)[C@@H](/C(C)=C/[C@@H]2CC[C@@H](O)[C@H](OC)C2)OC(=O)[C@@H]2CCCCN2C(=O)C(=O)[C@]2(O)O[C@H]1[C@@H](OC)C[C@H]2C [FK506-Dasatinib],Kd,FKBP12 [4],0.023 µM
"Cc1nc(Nc2ncc(C(=O)Nc3c(C)cccc3Cl)s2)cc(N2CCN(CCO)CC2)n1 [dasatinib, reference compound]",number of kinases inhibited >70%,[5],9
same,time after drug washout at which phosphotyrosine signal is restored,[3]; then drug removed,≤ 1 h
CO[C@H]1C[C@@H](C)C/C(C)=C/[C@@H](CCCC(=O)N2CCN(Cc3ccc(-c4ccc5ncnc(Nc6ccc(OCc7cccc(F)c7)c(Cl)c6)c5c4)o3)CC2)C(=O)C[C@H](O)[C@@H](C)[C@@H](/C(C)=C/[C@@H]2CC[C@@H](O)[C@H](OC)C2)OC(=O)[C@@H]2CCCCN2C(=O)C(=O)[C@]2(O)O[C@H]1[C@@H](OC)C[C@H]2C [FK-lapatinib],HER2 signaling,HER2,suppressed
same,IC50 of growth inhibition,SK-BR-3 cells,comparable to that of lapatinib
CCNc1nc(Nc2cc(F)c(C(=O)N3CCN(C(=O)CCC[C@@H]4/C=C(\C)C[C@H](C)C[C@H](OC)[C@H]5O[C@@](O)(C(=O)C(=O)N6CCCC[C@H]6C(=O)O[C@H](/C(C)=C/[C@@H]6CC[C@@H](O)[C@H](OC)C6)[C@H](C)[C@@H](O)CC4=O)[C@H](C)C[C@@H]5OC)CC3)cc2OC)ncc1C(F)(F)F [FK-GNE7915],inhibition of LRRK2 autophosphorylation compared to parent,LRRK2,more efficacious than its parent molecule GNE7915
